Laboratory results taken from ChEMBL document CHEMBL5032508, “Synthesis of Fluorescent Probes Targeting Tumor-Suppressor Protein FHIT and Identification of Apoptosis-Inducing FHIT Inhibitors” (J Med Chem, 2021).
One block for each molecule: values may come before it. Activity calls are given as the source filed them. The calls are words filed in the database; no cut-off is given here.

Key:
[1] = target: Bis(5'-adenosyl)-triphosphatase (Homo sapiens) (UniProt P49789); assay: Inhibition of recombinant human FHIT at 10 uM incubated for 1 hr by fluorescence based analysis relative to control
[2] = system: HCC827-Luc; assay: Induction of apoptosis in human HCC827-Luc cells assessed as increase in caspase 3/7 activity at 1 uM measured after 24 hrs by confocal fluorescence microscopic analysis; assay type: functional, cell-based
[3] = target: Bis(5'-adenosyl)-triphosphatase (Homo sapiens) (UniProt P49789); assay: Inhibition of recombinant human FHIT at 100 uM incubated for 1 hr by fluorescence based analysis relative to control
[4] = target: Bis(5'-adenosyl)-triphosphatase (Homo sapiens) (UniProt P49789); assay: Inhibition of recombinant human FHIT assessed as reduction in AP3Aase activity at 50 uM measured after 45 mins by HPLC analysis relative to control
[5] = system: NCI-H460-Luc; assay: Induction of apoptosis in human NCI-H460-Luc cells weakly expressing FHIT assessed as reduction in cell viability measured after 24 hrs by CCK-8 assay; assay type: functional, cell-based
[6] = system: HCC827-Luc; assay: Induction of apoptosis in human HCC827-Luc cells expressing FHIT assessed as reduction in cell viability measured after 24 hrs by CCK-8 assay; assay type: functional, cell-based
[7] = system: COc1ccc(-c2c3ccc(=O)cc-3oc3cc(OCOP(=O)(O)OC[C@H]4O[C@@H](n5ccc(N)nc5=O)[C@H](O)[C@@H]4O)ccc23)c(C)c1; assay: Substrate activity at human recombinant FHIT assessed as Km by Michaelis-Menten analysis
[8] = system: COc1ccc(-c2c3ccc(=O)cc-3oc3cc(OCOP(=O)(O)OC[C@H]4O[C@@H](n5ccc(N)nc5=O)[C@H](O)[C@@H]4O)ccc23)c(C)c1; assay: Substrate activity at human recombinant FHIT assessed as Kcat by Michaelis-Menten analysis
[9] = system: COc1ccc(-c2c3ccc(=O)cc-3oc3cc(OCOP(=O)(O)OC[C@H]4O[C@@H](n5ccc(=O)[nH]c5=O)[C@H](O)[C@@H]4O)ccc23)c(C)c1; assay: (§1) Substrate activity at human recombinant FHIT assessed as Kcat/Km by Michaelis-Menten analysis
[10] = system: COc1ccc(-c2c3ccc(=O)cc-3oc3cc(OCOP(=O)(O)OC[C@H]4O[C@@H](n5ccc(N)nc5=O)[C@H](O)[C@@H]4O)ccc23)c(C)c1; assay: as §1
[11] = system: COc1ccc(-c2c3ccc(=O)cc-3oc3cc(OCOP(=O)(O)OC[C@H]4O[C@@H](n5cnc6c(=O)[nH]c(N)nc65)[C@H](O)[C@@H]4O)ccc23)c(C)c1; assay: as §1
[12] = system: COc1ccc(-c2c3ccc(=O)cc-3oc3cc(OCOP(=O)(O)OC[C@H]4O[C@@H](n5cnc6c(N)ncnc65)[C@H](O)[C@@H]4O)ccc23)c(C)c1; assay: as §1
[13] = system: HCC827-Luc; assay: Induction of caspase-mediated apoptosis in human HCC827-Luc cells assessed as reduction in cell viability pretreated with caspase inhibitor Z-VAD-fmk for 1 hr followed by compound addition and measured after 72 hrs by CCK-8 assay; assay type: functional, cell-based
[14] = system: HCC827-Luc; assay: Induction of apoptosis in human HCC827-Luc cells assessed as increase in caspase 3/7 activity at 10 uM measured after 24 hrs by confocal fluorescence microscopic analysis; assay type: functional, cell-based
[15] = target: Bis(5'-adenosyl)-triphosphatase (Homo sapiens) (UniProt P49789); assay: Noncompetitive inhibition of human recombinant FHIT assessed as reduction in hydrolysis of TG-CMP at 1 to 9 uM measured for 30 mins by Lineweaver-Burk plot analysis; conditions: dose 1-9 µM
[16] = system: HCC827-Luc; assay: Induction of apoptosis in human HCC827-Luc cells expressing FHIT cocultured with human NCI-H460-Luc cells assessed as PI-positive cells at 10 uM incubated for 12 hrs by calcein AM/Hoechst/PI staining based confocal fluorescence microscopic analysis; assay type: functional, cell-based
[17] = system: NCI-H460-Luc; assay: Induction of apoptosis in human NCI-H460-Luc cells weakly expressing FHIT cocultured with human HCC827-Luc cells assessed as PI-positive cells at 10 uM incubated for 12 hrs by calcein AM/Hoechst/PI staining based confocal fluorescence microscopic analysis; assay type: functional, cell-based

Chain of Bis(5'-adenosyl)-triphosphatase (Homo sapiens), P49789 (P49789 whole entry): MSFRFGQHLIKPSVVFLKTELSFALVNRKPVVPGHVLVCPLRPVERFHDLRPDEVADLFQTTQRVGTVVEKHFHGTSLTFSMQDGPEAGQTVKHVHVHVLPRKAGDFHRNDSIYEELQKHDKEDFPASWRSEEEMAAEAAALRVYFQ
Chain of Bis(5'-adenosyl)-triphosphatase (Homo sapiens) (P49789 whole entry, looked up): as the sequence (P49789 whole entry) above

- inhibition [1]: > 80%
Molecule: CCOC(=O)c1c(C)sc(N)c1C(=O)OCC

Molecule: CN[C@@H]1C[C@H]2O[C@@](C)([C@@H]1OC)n1c3ccccc3c3c4c(c5c6ccccc6n2c5c31)C(=O)NC4
- Activity [2]: inactive

- inhibition [3]: > 50%
Molecule: Nc1ncnc2c1ncn2[C@@H]1O[C@H](COP(=O)(O)OP(=O)(O)OP(=O)(O)OP(=O)(O)OC[C@H]2O[C@@H](n3cnc4c(N)ncnc43)[C@H](O)[C@@H]2O)[C@@H](O)[C@H]1O

- inhibition [1]: > 80%
Molecule: COCC(=O)N1CC[C@@H]2[C@H]1C(=O)NC[C@H](CCC(=O)OC)N2C

- inhibition [1]: > 80%
- inhibition [4]: 95%
Molecule: O=C(O)c1ccc2[nH]c(-c3ccnc(-c4cccnc4)c3)nc2c1

- inhibition [3]: > 50%
Molecule: Nc1ncnc2c1ncn2[C@@H]1O[C@H](COP(=O)(O)OP(=O)(O)OP(=O)(O)OC[C@H]2O[C@@H](n3cnc4c(N)ncnc43)[C@H](O)[C@@H]2O)[C@@H](O)[C@H]1O

Molecule: Cc1c(OCc2nn[nH]n2)ccc2c3c(c(=O)oc12)CCCC3
- Activity [5]: inactive
- Activity [6]: inactive

- inhibition [1]: > 80%
Molecule: NNC(=O)c1nn(-c2ccccc2)c(=O)cc1O

- inhibition [1]: > 80%
- inhibition [4]: 59%
Molecule: O=C(Cn1cc([N+](=O)[O-])ccc1=O)NC(=O)NCc1ccco1

- inhibition [1]: > 80%
- inhibition [4]: 51%
Molecule: CN1C(=O)N/C(=C/c2cccn2-c2ccc(C(=O)O)cc2)C1=O

Molecule: Cc1c(OCC#N)ccc2c3c(c(=O)oc12)CCCC3
- Activity [5]: inactive
- Activity [6]: inactive

- inhibition [1]: > 80%
Molecule: O=C(O)c1ccc(/C=N/NC(=O)c2nc(-c3ccccc3)n(-c3ccccc3)n2)cc1

- inhibition [3]: > 50%
Molecule: Nc1ncnc2c1ncn2[C@@H]1O[C@H](COP(=O)(O)O)[C@@H](O)[C@H]1O

Molecule: Bis(5'-adenosyl)-triphosphatase (Homo sapiens), P49789
- Km [7]: 37 µM
- kcat [8]: 21 min⁻¹
- kcat/Km [9]: 110000 M⁻¹ min⁻¹
- kcat/Km [10]: 560000 M⁻¹ min⁻¹
- kcat/Km [11]: 58000 M⁻¹ min⁻¹
- kcat/Km [12]: 380000 M⁻¹ min⁻¹

- inhibition [15]: Active
Molecule: Cc1c(OCC(=O)NO)ccc2c3c(c(=O)oc12)CCCC3
- Activity [13]: inactive
- Activity [5]: Active
- Activity [14]: Active
- Activity [6]: Active
- Activity [16]: Active
- Activity [17]: inactive

Molecule: Cc1c(OCC(=O)O)ccc2c3c(c(=O)oc12)CCCC3
- Activity [5]: inactive
- Activity [6]: inactive

- inhibition [1]: > 80%
- inhibition [4]: 76%
Molecule: Cc1c(OCc2nn[nH]n2)ccc2c3c(c(=O)oc12)CCC(C)C3 (stereo not given)
